Assay results taken from PubChem BioAssay AID977607 (Broad Institute, 2014).
Calls of active or inactive are those of the source.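 How the source made its calls: active means curve reaches 40% activation over neutral controls at an AC40 no higher than the top valid tested concentration; inconclusive means no clear call, values can overlap the other calls; inactive means signal moving opposite to the expected increase, and the rest.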

Test system: INS-1E GLuc insulin secretion reporter, luminescence, 2-3 h
Test: activators of glucose-dependent insulin secretion, dose response, cell-based, INS-1E, Gaussia luciferase, luminescence, cherry-pick, set 2 (AID 977607)

CCCc1nc2ccccc2c(=O)n1CC(=O)c1ccc(OC)cc1
AC40: 16.4 µM

COc1ccc(/C=N/NC(=O)Cn2nnc3ccccc32)cc1OC
AC40: 24.4 µM

COc1cc(OC)c2c3c(c(C4CCCCC4)nc2c1)CCC3
AC40: 9.8 µM

COc1cc2c(cc1OC)-c1cc(Nc3ccccc3Br)nc(=O)n1CC2
AC40: 0.366 µM

NS(=O)(=O)c1ccc(CCNc2nc3c(-c4cccc(F)c4)nnn3c3ccccc23)cc1
AC40: 15.9 µM

CCOc1ccc(-c2nnn(CC(=O)Nc3ccccc3OC)n2)cc1OCC
AC40: 2.04 µM

CNC[C@H](CC1CCCCC1)NC[C@H](Cc1ccccc1)NCCC12CC3CC(CC(C3)C1)C2
AC40: 8.32 µM

Cc1ccc2nc(-c3ccc(NC(=O)COC(=O)c4ccco4)cc3)sc2c1
AC40: 4.42 µM

Cc1ccc(S(=O)(=O)C=CS(=O)(=O)c2ccc(C)cc2)cc1
AC40: 0.224 µM

CNc1ccc2ncc(-c3ccc(OC)c(OC)c3)n2n1
AC40: 7.77 µM

COc1cccc(CN2C[C@@H]3N[C@H](C2)C3c2ccc(-c3ccccc3OC)cc2)c1 (stereo partly drawn)
AC40: 7.9 µM

Cn1c(=O)c(C(=O)NNC(=O)c2cccc(Cl)c2)c(O)c2ccccc21
AC40: 7.02 µM

O=c1cc(-c2ccncc2)oc2c1ccc1ccccc12
AC40: 11.6 µM

CC(C)Sc1nc2c(c(=O)[nH]c(=O)n2C)n1Cc1ccc(Cl)cc1
AC40: 19.9 µM

N/C(=N\OC(=O)COc1ccc(Cl)cc1Cl)c1cccnc1
AC40: 29.8 µM

COc1cccc(-c2cc(C(=O)Nc3cc(C)on3)no2)c1
AC40: 19.2 µM

OC[C@@H]1[C@@H](c2ccc(C#CC3CCCC3)cc2)[C@@H]2CN(CCC(F)(F)F)CCCCN12
AC40: 6.02 µM

COc1ccc(NC(=O)COc2ccc(C(=O)NC3CCCc4ccccc43)cc2OC)cc1 (stereo not drawn)
AC40: 6.54 µM

NC(N)=N/N=C/c1ccc(OCc2ccccc2Cl)cc1
AC40: 16.4 µM

O=C(c1cccs1)c1coc2ccc(O)c(CN3CCOCC3)c12
AC40: > 35 µM (inactive)

O=C(Cn1c(COc2ccccc2)nc2ccccc21)Nc1cc(Cl)cc(Cl)c1
AC40: 10.9 µM

Cc1ccc(CN(C(=O)c2cccs2)C2CCS(=O)(=O)C2)cc1 (stereo not drawn)
AC40: 19.7 µM

COC(=O)c1ccc2c(=O)[nH]c(CSc3nc(-c4ccc(F)cc4)cs3)nc2c1
AC40: 5.86 µM

CCn1c(O)c(/C=N/N=C/c2ccc(OC)cc2)c2cc(C3=NNC(=O)CC3)ccc21
AC40: 4.21 µM

FC(F)(F)c1cc(CCN2CCNC[C@@H]2c2ccccc2)cc(C(F)(F)F)c1
AC40: 6.96 µM

COc1ccc(-c2ccncc2)cc1OC
AC40: 13 µM

CC1(Cc2ccc(C(F)(F)F)o2)C(=O)Nc2ccc(-c3cccc(C(F)(F)F)c3)cc21 (stereo not drawn)
AC40: 8.84 µM

Cc1cc(C)c2oc(C(=O)Nc3ccc(S(=O)(=O)Nc4nccc(C)n4)cc3)cc(=O)c2c1
AC40: 8.73 µM

CC(C)Nc1nc(Cl)nc(NC(C)C)n1
AC40: 11.6 µM

Oc1ccccc1C1SC(c2ccccc2O)SC(c2ccccc2O)S1 (stereo not drawn)
AC40: 6.08 µM

OC(c1ccccc1)(c1ccccc1)C1CCN(CCCOc2ccc(-c3ccc(F)cc3F)cc2)CC1
AC40: 3.89 µM

C/C(=N/NC(=O)c1ccc(Br)s1)c1ccncc1
AC40: > 35 µM (inactive)

CCn1c(SCc2cc(=O)[nH]c3ccccc23)nc2c1c(=O)n(C)c(=O)n2C
AC40: 1.42 µM

COc1ccc(-c2ccc(SCc3ccccn3)nn2)cc1OC
AC40: 6.41 µM

COc1ccc(-c2nc(-c3cccnc3)no2)cc1OC
AC40: > 35 µM (inactive)

COc1ccc(CCn2ccc(O)c(Cc3c(F)cccc3Cl)c2=O)cc1OC
AC40: 0.0544 µM

CC(C)(C)S(=O)N1Cc2cc(C(=O)Nc3ccc(-c4ccccc4)cc3)nc(-c3cccc(-c4cccc(F)c4)c3)c2[C@@H]1CCO (stereo partly drawn)
AC40: 6.27 µM

COc1ccc(Cn2c(=O)c3[nH]cnc3n(-c3ccccc3C)c2=O)cc1
AC40: 10.4 µM

CCCCCc1c(Cc2ccccc2)ncn1CCc1ccccc1OC
AC40: 12.3 µM

CCOc1ccc(Nc2oc(-c3ccc(Cl)cc3)nc2C#N)cc1
AC40: 5.14 µM

Cc1cccc(S(=O)(=O)N2CCCCN3[C@@H](CO)[C@@H](c4ccc(C#CC(C)C)cc4)[C@@H]3C2)c1
AC40: 18.2 µM

OC(c1ccccc1)(c1ccccc1)C1CCN(CCCOc2ccc3c(c2)CCCC3)CC1
AC40: 6.92 µM

O=C(NC1CCCCC1)C(c1ccc(F)cc1)N(Cc1ccccc1)C(=O)CN1C(=O)c2ccccc2S1(=O)=O (stereo not drawn)
AC40: 27.1 µM
